Values of other authors as cited in US20230404915A1, “RAPIDLY […] COMPOSTIONS AND METHODS (Nicotine)” (ORCOSA INC., priority 2020, published 2023).

Molecular target: nicotinic acetylcholine receptors (nAChRs) (Homo sapiens, UniProt P17787+P43681)
Details: peak levels of nicotine after smoking a cigarette; brain α4β2 nAChRs

Chain of nicotinic acetylcholine receptors (nAChRs) (P43681 29-627 limits assumed): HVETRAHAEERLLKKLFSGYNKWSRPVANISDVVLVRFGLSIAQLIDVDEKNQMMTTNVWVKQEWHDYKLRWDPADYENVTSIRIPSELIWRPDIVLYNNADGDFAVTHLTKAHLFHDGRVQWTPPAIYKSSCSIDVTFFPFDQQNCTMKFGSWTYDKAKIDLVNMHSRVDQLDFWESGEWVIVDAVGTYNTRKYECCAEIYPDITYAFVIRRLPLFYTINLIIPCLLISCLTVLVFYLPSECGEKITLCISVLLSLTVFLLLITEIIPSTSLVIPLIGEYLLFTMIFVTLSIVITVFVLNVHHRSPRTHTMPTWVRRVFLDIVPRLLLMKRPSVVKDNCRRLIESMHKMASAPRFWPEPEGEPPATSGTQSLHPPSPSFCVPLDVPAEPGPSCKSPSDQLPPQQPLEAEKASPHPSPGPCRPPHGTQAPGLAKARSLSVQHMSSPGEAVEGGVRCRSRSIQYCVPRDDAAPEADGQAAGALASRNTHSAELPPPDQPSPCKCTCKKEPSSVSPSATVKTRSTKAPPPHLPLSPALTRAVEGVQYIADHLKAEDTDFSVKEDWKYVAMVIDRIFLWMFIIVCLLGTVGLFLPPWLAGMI
Chain of nicotinic acetylcholine receptors (nAChRs) (P17787 26-502): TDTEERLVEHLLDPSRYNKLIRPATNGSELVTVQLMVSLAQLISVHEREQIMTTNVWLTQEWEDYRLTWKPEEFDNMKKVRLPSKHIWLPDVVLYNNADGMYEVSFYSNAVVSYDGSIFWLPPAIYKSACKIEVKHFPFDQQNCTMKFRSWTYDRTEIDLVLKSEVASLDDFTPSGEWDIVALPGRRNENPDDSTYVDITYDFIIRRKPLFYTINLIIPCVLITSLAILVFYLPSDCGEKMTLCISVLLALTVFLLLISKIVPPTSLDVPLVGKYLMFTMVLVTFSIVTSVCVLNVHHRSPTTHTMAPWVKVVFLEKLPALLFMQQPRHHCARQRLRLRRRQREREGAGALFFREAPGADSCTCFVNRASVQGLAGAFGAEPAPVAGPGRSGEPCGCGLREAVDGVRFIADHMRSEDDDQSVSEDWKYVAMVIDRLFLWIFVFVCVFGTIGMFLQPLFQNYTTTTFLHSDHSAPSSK

CN1CCCC1c1cccnc1 (stereo not shown) [nicotine]
binding to the nicotinic acetylcholine receptors (nAChRs), saturation: around 90%
